Experimental data reported in patent US4690891A, “Method and the microorganism and enzyme used therein for degrading the xanthan molecule” (Exxon Research and Engineering Company, priority 1985, dated 1987).
Read-outs that look alike come from different tables or passages of the source.

Tests used:
xanthan depolymerase [1] = experiment: Substrate specificity of xanthan depolymerase; format: biochemical, Bacillus sp. (culture NRRL B-15992); details: forty μg of enzyme per assay
Protocol: (§1) A novel xanthan depolymerase was purified from the culture supernatant and examined for its effect on degrading xanthan. In the following, enzyme assays were conducted with either viscosity or reducing sugar measurements by incubating a 1.25 ml xanthan stock solution and a small amount of enzyme(s) at 25° C. Xanthan stock solution was prepared by dissolving 0.188% xanthan, 0.4 mM MgSO4, and 0.03 mM MnSO4 in 0.05 M sodium acetate buffer pH 5.4. At certain time intervals samples were taken for either viscosity or reducing sugar assay. Viscosity was measured at 25° C. (using a Contraves low-shear 30 rheometer, Middlesex, U.K. at a shear rate of 1.3 sec.^-1 1). The rheometer was equipped with a refrigerated circulating bath (Neslab Endoccal bath, Portsmouth, N.H.). Reducing sugars, calculated as glucose, were determined by the method of Somogyi, M., (1945), "A New Reagent for the Determination of Sugars", J. Biol. Chem. 160, 61-69. […] The changes in viscosity and reducing sugars between two time intervals (1.0 min to 2.0 min for Δ cps, 0.5 min to 1.5 min for Δ reducing sugars) were measured. Enzyme activity (in units) was expressed as Δ cps/min (depolymerase) or Δμmoles reducing sugar group released (as glucose) per min. (for both endo and exoglucanases). Specific enzyme activity was expressed as units per mg of protein.

xanthan depolymerase [2] = experiment: Inhibition of xanthan depolymerase activity, assayed viscosimetrically; format: biochemical, Bacillus sp. (culture NRRL B-15992)
Protocol: as §1
Various chemicals including thiols, metal ions and metal-chelating agents were tested for inhibition of xanthan depolymerase activity. These chemicals (at 1 mM concentration unless otherwise stated) were added into xanthan stock solutions. Enzyme activity was assayed viscosimetrically.

culture B-15992 [3] = experiment: Effect of chemicals and biocide on growth of culture B-15992 in xanthan broth (viscosity loss); format: cell-based, Bacillus sp. / Flavobacterium sp. mixed culture NRRL B-15992
Protocol: Chemicals and biocides, including those used in enhanced oil recovery operations were studied for their effect on the growth of culture B-15992 and on the activity of xanthan-degrading enzyme(s). Both aerobic and anaerobic conditions were tested. In order to simulate the conditions used in EOR field operation, xanthan was produced in the laboratory by growing Xanthomonas campestris according to the published procedure, Jeanes, A., et al, (1976), "Polysaccharide (xanthan) of Xanthomonas campestris NRRL B-1459: Procedures for culture maintenance and polysaccharide production, purification and analysis". Agricultural Research Service, U.S. Department of Agriculture AR-NC-51. After centrifugation, the culture broth was autoclaved and was diluted with brine to about 300 cps viscosity. A cell suspension of culture B-15992 obtained from colonies grown on agar plates was used as the innoculum. Growth of B-15992 was followed by monitoring decreases of viscosity of the culture broth and by microscopic observation.

culture B-15992 [4] = test system: culture B-15992
Text: The stable mixed culture is hereinafter designated NRRL B-15992.

OC[C@H]1O[C@@H](O[C@H]2[C@H](O)[C@@H](O)C(O)O[C@@H]2CO)[C@H](O)[C@@H](O)[C@@H]1O (single isomer, unassigned) [D(+) cellobiose]
Enzyme Activity (μmoles reducing sugar/min) (xanthan depolymerase [1]): 0 μmoles reducing sugar/min

c1cnc2c(c1)ccc1cccnc12 [1,10-phenanthroline]
% Inhibition (xanthan depolymerase [2]; inhibitor 1 mM): 0%

O=C(O)c1cc(SSc2ccc([N+](=O)[O-])c(C(=O)O)c2)ccc1[N+](=O)[O-] [5,5'-dithio-bis-2-n-nitrobenzoic acid]
% Inhibition (xanthan depolymerase [2]; inhibitor 1 mM): 0%

Oc1cccc2cccnc12 [8-hydroxyquinoline]
% Inhibition (xanthan depolymerase [2]): 0%

OC[C@H]1O[C@H](O[C@H]2O[C@H](CO)[C@@H](O)[C@H](O)[C@H]2O)[C@H](O)[C@@H](O)[C@@H]1O [D(+) trehalose]
Enzyme Activity (μmoles reducing sugar/min) (xanthan depolymerase [1]): 0 μmoles reducing sugar/min

N#CC(Br)(Br)C(N)=O [DBNPA, 2,2-dibromo-3-nitrilopropionamide]
prevention of growth of B-15992 (culture B-15992 [3]; 10 ppm): not effective in preventing the growth of B-15992 | time until solution viscosity was lost (culture B-15992 [3]; 10 ppm, aerobic): ≤ 5 days | Viscosity (cps after days incubation) Aerobic (culture B-15992 [3]; 10 ppm, aerobic, 5 days): 1.5 cps | Viscosity (cps after days incubation) Anaerobic (culture B-15992 [3]; 10 ppm): 300 cps

[Na+].[O-]c1cc(Cl)c(Cl)cc1Cl [Dowicide B, sodium trichlorophenate]
inhibition of xanthan depolymerase activity (xanthan depolymerase [2]; 100 ppm): failed to inhibit

O=C(O)CN(CCN(CC(=O)O)CC(=O)O)CC(=O)O [EDTA]
% Inhibition (xanthan depolymerase [2]): 0%

C=O [HCHO, formaldehyde]
time for B-15992 to degrade the xanthan solution (culture B-15992 [3]; 25 ppm, aerobic): 9 days | Viscosity (cps after days incubation) Aerobic (culture B-15992 [3]; 25 ppm, aerobic, 9 days, about 300 cps at start): 1.5 cps | Viscosity (cps after days incubation) Anaerobic (culture B-15992 [3]; 25 ppm): 300 cps | prevention of growth of B-15992 (culture B-15992 [3]; 25 ppm, compared with 10 ppm DBNPA): somewhat more effective | Viscosity (cps after days incubation) Aerobic (culture B-15992 [3]; 50 ppm, aerobic): 300 cps | Viscosity (cps after days incubation) Anaerobic (culture B-15992 [3]; 50 ppm): 300 cps | changes in solution viscosity or cell growth (culture B-15992 [3]; 50 ppm, during 30 days of incubation): no changes in solution viscosity or cell growth | inhibition of xanthan depolymerase activity (xanthan depolymerase [2]): not inhibited

[Cl-].[K+] [KCl]
inhibition of xanthan depolymerase activity (xanthan depolymerase [2]; 1 mM): not inhibited

[K+].[OH-] [KOH]
inhibition of xanthan depolymerase activity (xanthan depolymerase [2]; 5.0 mM (Trizma ph 8.5)): not inhibited

N#CSCSC#N [MBT 3522, methylene bisthiocyanate]
inhibition of xanthan depolymerase activity (xanthan depolymerase [2]; 100 ppm): failed to inhibit

CCN1C(=O)C=CC1=O [N--ethylmaleimide]
% Inhibition (xanthan depolymerase [2]; inhibitor 1 mM): 40%

O=S([O-])S(=O)[O-].[Na+].[Na+] [Na2 S2 O4, sodium dithionite]
Viscosity (cps after days incubation) Aerobic (culture B-15992 [3]; 75 ppm, aerobic, xanthan broth about 300 cps at start): 1.0 cps | Viscosity (cps after days incubation) Anaerobic (culture B-15992 [3]; 75 ppm, about 300 cps at start): 300 cps | inhibition of xanthan depolymerase activity (xanthan depolymerase [2]; 0.2%): not inhibited | inhibition of xanthan depolymerase activity (xanthan depolymerase [2]; 100 ppm): not inhibited

[Cl-].[Na+] [NaCl]
growth of culture B-15992 (culture B-15992 [4]; 10% salt concentration): completely inhibited | growth of culture B-15992 (culture B-15992 [4]; salt concentration between 6-8%): somewhat slower | growth of culture B-15992 (culture B-15992 [4]; up to 5% salt (NaCl) concentration): not inhibited | inhibition of xanthan depolymerase activity (xanthan depolymerase [2]): not inhibited

[Na+].[OH-] [NaOH]
inhibition of xanthan depolymerase activity (xanthan depolymerase [2]; 5.0 mM (Trizma ph 8.5)): not inhibited

NC(CO)(CO)CO [Trizma]
inhibition of xanthan depolymerase activity (xanthan depolymerase [2]): not inhibited

N.N.O=S(=O)(O)O [ammonium sulfate]
inhibition of xanthan depolymerase activity (xanthan depolymerase [2]): not inhibited

Clc1ccccc1 [chlorobenzene]
inhibition of xanthan depolymerase activity (xanthan depolymerase [2]; 100 ppm): not inhibited

ClC(Cl)Cl [chloroform]
inhibition of xanthan depolymerase activity (xanthan depolymerase [2]): not inhibited

O=C(O)CC(O)(CC(=O)O)C(=O)O [citric acid]
inhibition of xanthan depolymerase activity (xanthan depolymerase [2]; 5.5 mM): not inhibited

N#CC(Br)(Br)C(N)=O [dow Antimicrobial 7287, 2,2-dibromo-3-nitrilopropionamide]
inhibition of xanthan depolymerase activity (xanthan depolymerase [2]; 100 ppm): failed to inhibit

[Cl][Fe]([Cl])[Cl] [ferric chloride]
% Inhibition (xanthan depolymerase [2]): 100% | inhibition of xanthan depolymerase activity (xanthan depolymerase [2]): inhibited strongly

c1c[nH]cn1 [imidazole]
% Inhibition (xanthan depolymerase [2]): 30%

NC(=O)CI [iodoacetamide]
% Inhibition (xanthan depolymerase [2]; inhibitor 1 mM): 0%

O=C(O)CI [iodoacetic acid]
% Inhibition (xanthan depolymerase [2]): 0%

O=C(O)c1cc[c]([Hg+])cc1.[OH-] [p-hydroxymercuribenzoate]
% Inhibition (xanthan depolymerase [2]; inhibitor 1 mM): 40%

[N-]=[N+]=[N-] [sodium azide]
% Inhibition (xanthan depolymerase [2]; inhibitor 1 mM): 0%

OCl [sodium hypochlorite]
inhibition of xanthan depolymerase activity (xanthan depolymerase [2]; 100 ppm): not inhibited

On1ccccc1=S [sodium omadine]
inhibition of xanthan depolymerase activity (xanthan depolymerase [2]): failed to inhibit

NNC(N)=S [thiosemicarbazide]
% Inhibition (xanthan depolymerase [2]; inhibitor 1 mM): 20%

NC(N)=S [thiourea]
% Inhibition (xanthan depolymerase [2]; inhibitor 1 mM): 20%

c1ccc(-c2ccccn2)nc1 [α, α' bipyridyl]
% Inhibition (xanthan depolymerase [2]; inhibitor 1 mM): 30%

O=C(CCl)c1ccc(O)c(O)c1 [α-chloro-3,4-dihydroxyacetophenone]
inhibition of xanthan depolymerase activity (xanthan depolymerase [2]; 100 ppm): not inhibited

Triton X-100
Viscosity (cps after days incubation) Aerobic (culture B-15992 [3]; 500 ppm, aerobic): 90 cps | Viscosity (cps after days incubation) Anaerobic (culture B-15992 [3]; 500 ppm): 300 cps | inhibition of xanthan depolymerase activity (xanthan depolymerase [2]; 4%): not inhibited

arsenomolybdate
inhibition of xanthan depolymerase activity (xanthan depolymerase [2]; concentrations of Table VI): inhibited strongly | % Inhibition (xanthan depolymerase [2]; inhibitor 4%): 100%

chlorophenol
inhibition of xanthan depolymerase activity (xanthan depolymerase [2]; 100 ppm): not inhibited

ferrous sulfate
inhibition of xanthan depolymerase activity (xanthan depolymerase [2]; 5.5 mM): not inhibited
